Test results as given in US20170051112A1, “RESIN COMPOSITION SUITABLE FOR PRINTING AND PRINTING METHOD UTILIZING THE SAME” (MONTANUNIVERSITÄT LEOBEN, priority 2014, published 2017).

Key:
[1] = Maximum reaction speed by Photo Differential Scanning Calorimetry (Photo-DSC); conditions: yne monomer with TMPMP and 5 wt.-% photoinitiator mixture (comparatives without thiol); 1 W/cm^2, 50° C., nitrogen
Procedure: The maximum reaction speed of various monomers was evaluated by means of Photo Differential Scanning Calorimetry (Photo-DSC). 8 mg of the respective test mixtures consisting of yne monomer (as shown in the following table 1) and thiol monomer (trimethylpropane tri(3-mercaptopropionate), TMPMP) as well as 5 wt.-% of a photoinitiator mixture (2-hydroxy-2-methyl-1-phenyl propanone/diphenyl 2,4,6-trimethylbenzoyl phosphane oxide, 50 wt.-%/50 wt.-%) were provided. As comparative test mixtures, acrylate and methacrylate without thiol monomer, but together with 5 wt.-% of the same photoinitiator mixture were provided. The test mixtures were placed in a crucible of aluminium and irradiated with an Omnicure® lamp at an intensity of 1 W/cm^2 at 50° C. under a nitrogen gas atmosphere to thereby cure the test mixtures.
The times (tmax) for reaching the maximum reaction enthalpy indicate the reactivity of the photo-reactive systems. FIG. 1 is a graphical illustration of the test results (tmax) further showing the chemical structural formulas of the tested alkyne monomers and comparative (meth)acryl monomers.

[2] = system: L929 mice fibroblast cells; experiment: Cytotoxicity (residual protein content of the cells); format: cell-based; conditions: for Cytotoxicity, in words: L929 cells; for Concentration limit: toxicological concentration limit: reduction of protein content of L929 cells by more than 30% relative to negative control; for Concentration limit / EC50: incubation 48 h; for EC50: concentration at which 50% of the L929 cells are damaged
Procedure: The cytotoxicity of various monomers was determined by a certified laboratory by means of L929 mice fibroblast cells. As a (toxic) positive control, Triton X 100 was added to L929 cells with a final concentration of 1% (v/v). As a (non-toxic) negative control, a cell culture medium was used.
After completion of the incubation, the residual protein content of the cells was determined. A reduction of the protein content from L929 cells by more than 30%, relative to the negative control, was evaluated as cytotoxic (which corresponds to the toxicological concentration limit). From this, the half maximal effective concentration (EC50), at which 50% of the cells are damaged, can be calculated.

[3] = Measurement of viscosity (cone-and-plate viscosimeter); format: physicochemical; conditions: for Viscosity at 25° C.: constant shear rate 300 s^-1, 25° C.; for Viscosity, in words: 25° C.
Procedure: For measuring the viscosity, an MC 200 cone-and-plate viscosimeter from Anton Paar GmbH (cone unit MK 22/50 mm, 10) was used. First, the shear rate was varied with a stepped slope and subsequently the viscosity was determined at a constant shear rate (300 s^−1) every 30 seconds. The measurement was carried out at 25° C.

Molecule: C=C(C)C(=O)OCCCCOC(=O)C(=C)C [1,4-butanediol dimethacrylate, reference compound]
- tmax (time for reaching the maximum reaction enthalpy) [1]: 6.72 s
- Cytotoxicity, in words [2]: particularly cytotoxic
- Concentration limit [2]: <160 µM
- Viscosity at 25° C. [3]: 4.6 mPa*s

Molecule: C#CCOCCCCOCC#C [1,4-butanediol dipropargyl ether]
- tmax (time for reaching the maximum reaction enthalpy) [1]: 5.12 s
- Cytotoxicity, in words [2]: excellently low cytotoxicity
- EC50 ([2]; Mus musculus): 3000 µM
- Concentration limit [2]: >1600 µM
- Viscosity, in words [3]: relatively low values
- Viscosity at 25° C. [3]: 4.7 mPa*s

Molecule: C=CC(=O)OCCCCOC(=O)C=C [1,4-butanediol diacrylate, reference compound]
- tmax (time for reaching the maximum reaction enthalpy) [1]: 1.80 s
- Cytotoxicity, in words [2]: particularly cytotoxic
- Concentration limit [2]: <160 µM
- Viscosity at 25° C. [3]: 4.3 mPa*s

Molecule: C#CCOC(=O)OCC(CC)(COC(=O)OCC#C)COC(=O)OCC#C [Trimethylolpropane tripropargyl carbonate]
- tmax (time for reaching the maximum reaction enthalpy) [1]: 1.92 s

Molecule: CCC#COCCCCOC#CCC [1,4-butanediol dibut-1-ynyl ether]
- tmax (time for reaching the maximum reaction enthalpy) [1]: 2.22 s
- Cytotoxicity, in words [2]: excellently low cytotoxicity
- EC50 ([2]; Mus musculus): 2000 µM
- Concentration limit [2]: >1100 µM
- Viscosity, in words [3]: relatively low values
- Viscosity at 25° C. [3]: 6.1 mPa*s

Molecule: 1,4-butanediol dibut-1-ynyl carbonate
- tmax (time for reaching the maximum reaction enthalpy) [1]: 2.46 s

Molecule: 1,4-butanediol dipropargyl carbonate
- tmax (time for reaching the maximum reaction enthalpy) [1]: 3.00 s
- EC50 [2]: 550 µM

Molecule: CCC#COCCOC(COCC)OC#CCC (centres unmarked) [1,4-triethyleneglycol dibut-1-ynyl ether]
- tmax (time for reaching the maximum reaction enthalpy) [1]: 2.46 s
- Viscosity at 25° C. [3]: 17.2 mPa*s
